According to ChEMBL document CHEMBL1136876, “On the inhibition of HIV-1 protease by hydrazino-ureas displaying the N-->C=O interaction” (Bioorg Med Chem, 2009):
pIC50, pKi: −log10 of the molar value.

Columns and labels:
Protease [1] = target: T1, Protease (Human immunodeficiency virus 1, UniProt Q9YQ12); assay: Inhibition of HIV1 protease by FRET assay
Protease [2] = target: T1, Protease; assay: Inhibition of HIV1 protease by Lineweaver-Burke method
Protease [3] = target: T1, Protease; assay: Inhibition of HIV1 protease by Hanes method
Protease [4] = target: T1, Protease; assay: Inhibition of HIV1 protease by Dixon method

T1 sequence (Q9YQ12 whole entry): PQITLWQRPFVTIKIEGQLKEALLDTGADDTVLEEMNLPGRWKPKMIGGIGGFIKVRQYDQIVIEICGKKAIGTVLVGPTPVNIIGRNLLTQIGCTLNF

Row | Structure (SMILES) | pIC50 (Protease [1]) | pKi (Protease [2]) | pKi (Protease [3]) | pKi (Protease [4])
1 | C=CCOC(=O)N[C@]1(Cc2ccccc2)CC[N+]2(CCC[C@H]2C(=O)OC)C1[O-] (some centres undefined) | < 3.00 | – | – | –
2 | CC(C)[C@H](N)C(=O)N[C@]1(Cc2ccccc2)CC[N+]2(CCC[C@H]2C(=O)NC(=O)[C@@H](NC(C)(C)C)C(C)C)C1[O-] (some centres undefined) | 3.69 | 4.00 | 4.02 | 4.02
3 | CC(C)[C@H](N)C(=O)N[C@]1(Cc2ccccc2)CC[N+]2(CCC[C@H]2C(=O)NC(C)(C)C)C1[O-] (some centres undefined) | 3.26 | 3.24 | 3.21 | 3.24

Other lines, results leading:

Row | pIC50 (Protease [1]) | pKi (Protease [2]) | pKi (Protease [3]) | pKi (Protease [4]) | Structure (SMILES)
4 | 4.43 | 4.58 | 4.58 | 4.46 | O=C1N[C@@H](Cc2ccccc2)C([O-])[N+]2(CCCCC2)N1Cc1ccccc1 (some centres undefined)
5 | 3.27 | 3.34 | 3.34 | 3.34 | O=C1N[C@H](Cc2ccccc2)C([O-])[N+]2(CCCCC2)N1Cc1ccccc1 (some centres undefined)
6 | 4.35 | 4.46 | 4.46 | 4.36 | CC(C)(C)NC(=O)[C@@H]1CCC[N+]12C([O-])[C@H](Cc1ccccc1)NC(=O)N2Cc1ccccc1 (some centres undefined)
7 | 3.77 | 3.83 | 3.83 | 3.86 | CC[C@H](C)[C@H](NC(=O)[C@@H](NC(C)(C)C)C(C)C)C(=O)NC(=O)[C@@H]1CCC[N+]12C([O-])[C@H](Cc1ccccc1)NC(=O)N2Cc1ccccc1 (some centres undefined)
8 | 3.47 | 3.53 | 3.53 | 3.54 | CC(C)[C@H](NC(C)(C)C)C(=O)NC(=O)[C@@H]1CCC[N+]12C([O-])[C@H](Cc1ccccc1)NC(=O)N2Cc1ccccc1 (some centres undefined)
